According to patent publication US9475775B2, “Benzazepine dicarboxamide compounds” (Hoffmann-La Roche Inc., priority 2015, dated 2016):

Experiments:
human TLR8 = human TLR8 (Homo sapiens (Human), UniProt Q9NR97); assay: HEK-Blue human TLR8 cells, NF-κB SEAP reporter assay; assay type: cell-based; settings: stimulation for 20 hours
Source text: (§1) For TLR8 and TLR7 activity testing, HEK-Blue human TLR8 or TLR7 cells (Invivogen, San Diego, Calif., USA) are used, respectively. These cells are designed for studying the stimulation of human TLR8 or TLR7 by monitoring the activation of NF-κB. A SEAP (secreted embryonic alkaline phosphatase) reporter gene is placed under the control of the IFN-b minimal promoter fused to five NF-κB and AP-1-binding sites. Therefore the reporter expression is regulated by the NF-κB promoter upon stimulation of human TLR8 or TLR7 for 20 hours. The cell culture supernatant SEAP reporter activity was determined using Quanti Blue kit (Invivogen, San Diego, Ca, USA) at a wavelength of 640 nm, a detection medium that turns purple/blue in the presence of alkaline phosphatase. EC50 values were determined using Activity Base analysis (ID Business Solution, Limited).

human TLR7 = human TLR7 (Homo sapiens (Human), UniProt Q9NYK1); assay: HEK-Blue human TLR7 cells, NF-κB SEAP reporter assay; assay type: cell-based; settings: stimulation for 20 hours
Chain of human TLR7 (Q9NYK1 27-1049): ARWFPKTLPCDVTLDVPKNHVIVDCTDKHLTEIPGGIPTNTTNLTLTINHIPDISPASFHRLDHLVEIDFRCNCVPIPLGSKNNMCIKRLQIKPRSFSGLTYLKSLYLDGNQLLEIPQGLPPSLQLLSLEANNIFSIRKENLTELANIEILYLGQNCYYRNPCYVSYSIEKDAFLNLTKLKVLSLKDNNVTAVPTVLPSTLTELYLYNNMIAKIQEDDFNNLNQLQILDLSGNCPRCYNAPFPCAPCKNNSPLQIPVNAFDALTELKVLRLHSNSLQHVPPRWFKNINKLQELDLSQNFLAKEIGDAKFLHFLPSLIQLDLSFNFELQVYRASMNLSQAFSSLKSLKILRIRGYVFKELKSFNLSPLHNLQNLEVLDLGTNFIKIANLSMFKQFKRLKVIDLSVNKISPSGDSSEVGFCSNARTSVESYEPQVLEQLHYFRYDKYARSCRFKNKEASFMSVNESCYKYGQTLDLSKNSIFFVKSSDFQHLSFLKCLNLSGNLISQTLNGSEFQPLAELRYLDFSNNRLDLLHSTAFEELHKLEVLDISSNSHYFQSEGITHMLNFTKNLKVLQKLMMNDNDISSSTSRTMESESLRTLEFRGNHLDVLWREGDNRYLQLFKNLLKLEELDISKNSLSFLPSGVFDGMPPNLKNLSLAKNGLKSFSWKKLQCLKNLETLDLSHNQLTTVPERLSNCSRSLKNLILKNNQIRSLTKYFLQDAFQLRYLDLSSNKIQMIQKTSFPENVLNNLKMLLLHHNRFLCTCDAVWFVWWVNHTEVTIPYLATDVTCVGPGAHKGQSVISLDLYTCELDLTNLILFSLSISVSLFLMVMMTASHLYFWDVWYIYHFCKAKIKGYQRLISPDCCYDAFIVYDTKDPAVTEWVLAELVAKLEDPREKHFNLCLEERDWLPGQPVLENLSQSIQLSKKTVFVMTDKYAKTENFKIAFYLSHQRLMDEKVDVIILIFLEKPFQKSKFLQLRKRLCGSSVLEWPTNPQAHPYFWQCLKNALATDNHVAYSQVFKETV
Source text: as §1

Chain of human TLR8 (Q9NR97 27-1041): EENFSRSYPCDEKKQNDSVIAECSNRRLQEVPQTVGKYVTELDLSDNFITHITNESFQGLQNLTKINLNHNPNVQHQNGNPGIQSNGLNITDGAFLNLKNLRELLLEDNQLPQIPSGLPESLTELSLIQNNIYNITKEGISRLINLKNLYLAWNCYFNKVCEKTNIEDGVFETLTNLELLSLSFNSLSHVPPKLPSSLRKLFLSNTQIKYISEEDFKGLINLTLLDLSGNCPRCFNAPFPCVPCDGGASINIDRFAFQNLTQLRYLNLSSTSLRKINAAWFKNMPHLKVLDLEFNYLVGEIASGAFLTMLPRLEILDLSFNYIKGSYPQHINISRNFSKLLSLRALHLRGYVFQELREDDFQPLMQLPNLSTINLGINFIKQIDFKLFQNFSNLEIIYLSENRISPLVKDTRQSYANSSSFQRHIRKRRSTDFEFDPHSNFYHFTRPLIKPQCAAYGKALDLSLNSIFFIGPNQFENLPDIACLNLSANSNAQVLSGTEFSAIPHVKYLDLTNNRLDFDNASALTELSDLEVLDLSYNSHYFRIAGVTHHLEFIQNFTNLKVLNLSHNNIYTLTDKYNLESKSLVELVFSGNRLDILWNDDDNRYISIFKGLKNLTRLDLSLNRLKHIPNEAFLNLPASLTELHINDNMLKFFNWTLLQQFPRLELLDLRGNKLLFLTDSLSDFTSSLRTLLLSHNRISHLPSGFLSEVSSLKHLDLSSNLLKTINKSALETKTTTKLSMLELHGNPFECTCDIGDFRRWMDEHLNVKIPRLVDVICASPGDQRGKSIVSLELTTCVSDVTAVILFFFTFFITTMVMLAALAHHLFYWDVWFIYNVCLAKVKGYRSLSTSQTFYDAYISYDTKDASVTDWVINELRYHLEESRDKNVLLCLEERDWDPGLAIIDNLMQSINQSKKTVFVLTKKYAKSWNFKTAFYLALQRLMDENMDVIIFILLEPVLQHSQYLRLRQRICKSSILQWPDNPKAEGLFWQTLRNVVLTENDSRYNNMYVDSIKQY

EC50 (human TLR8) [nM] | EC50 (human TLR7) [nM] | Compound
1 | 80800 | CCCN(CCC)C(=O)C1=Cc2ccc(C(=O)Nc3cccnc3)cc2N=C(N)C1 [Example 1, 2-Amino-N4,N4-dipropyl-N8-(3-pyridyl)-3H-1-benzazepine-4,8-dicarboxamide]
1 | > 100000 | CCCN(CCC)C(=O)C1=Cc2ccc(C(=O)Nc3cncnc3)cc2N=C(N)C1 [Example 2, 2-Amino-N4,N4-dipropyl-N8-pyrimidin-5-yl-3H-1-benzazepine-4,8-dicarboxamide]
13 | 70100 | CCCN(CCC)C(=O)C1=Cc2ccc(C(=O)Nc3ccncc3)cc2N=C(N)C1 [Example 3, 2-Amino-N4,N4-dipropyl-N8-(4-pyridyl)-3H-1-benzazepine-4,8-dicarboxamide]
7 | > 100000 | CCCN(CCC)C(=O)C1=Cc2ccc(C(=O)Nc3ccccc3)cc2N=C(N)C1 [Example 4, 2-Amino-N8-phenyl-N4,N4-dipropyl-3H-1-benzazepine-4,8-dicarboxamide]
3 | > 100000 | CCCN(CCC)C(=O)C1=Cc2ccc(C(=O)Nc3ccc(CN)nc3)cc2N=C(N)C1 [Example 5, 2-Amino-N8-[6-(aminomethyl)-3-pyridyl]-N4,N4-dipropyl-3H-1-benzazepine-4,8-dicarboxamide]
8 | > 100000 | CCCN(CCC)C(=O)C1=Cc2ccc(C(=O)Nc3cncc(CO)c3)cc2N=C(N)C1 [Example 6, 2-Amino-N8-[5-(hydroxymethyl)-3-pyridyl]-N4,N4-dipropyl-3H-1-benzazepine-4,8-dicarboxamide]
15 | > 100000 | CCCN(CCC)C(=O)C1=Cc2ccc(C(=O)Nc3ccc(CO)nc3)cc2N=C(N)C1 [Example 7, 2-Amino-N8-[6-(hydroxymethyl)-3-pyridyl]-N4,N4-dipropyl-3H-1-benzazepine-4,8-dicarboxamide]
10 | 44000 | CCCN(CCC)C(=O)C1=Cc2ccc(C(=O)Nc3cccc(S(C)(=O)=O)c3)cc2N=C(N)C1 [Example 8, 2-Amino-N8-(3-methylsulfonylphenyl)-N4,N4-dipropyl-3H-1-benzazepine-4,8-dicarboxamide]
3 | > 100000 | CCCN(CCC)C(=O)C1=Cc2ccc(C(=O)Nc3cncs3)cc2N=C(N)C1 [Example 9, 2-Amino-N4,N4-dipropyl-N8-thiazol-5-yl-3H-1-benzazepine-4,8-dicarboxamide]
2 | > 100000 | CCCN(CCC)C(=O)C1=Cc2ccc(C(=O)Nc3ccc(Cl)cc3)cc2N=C(N)C1 [Example 10, 2-Amino-N8-(4-chlorophenyl)-N4,N4-dipropyl-3H-1-benzazepine-4,8-dicarboxamide]
29 | > 100000 | CCCN(CCC)C(=O)C1=Cc2ccc(C(=O)Nc3nccs3)cc2N=C(N)C1 [Example 11, 2-Amino-N4,N4-dipropyl-N8-thiazol-2-yl-3H-1-benzazepine-4,8-dicarboxamide]
4 | > 100000 | CCCN(CCC)C(=O)C1=Cc2ccc(C(=O)Nc3cncn3C)cc2N=C(N)C1 [Example 12, 2-Amino-N8-(3-methylimidazol-4-yl)-N4,N4-dipropyl-3H-1-benzazepine-4,8-dicarboxamide]
7 | > 100000 | CCCN(CCC)C(=O)C1=Cc2ccc(C(=O)Nc3ccc(F)cc3)cc2N=C(N)C1 [Example 13, 2-Amino-N8-(4-fluorophenyl)-N4,N4-dipropyl-3H-1-benzazepine-4,8-dicarboxamide]
1 | > 100000 | CCCN(CCC)C(=O)C1=Cc2ccc(C(=O)Nc3cccc(C)c3)cc2N=C(N)C1 [Example 14, 2-Amino-N8-(m-tolyl)-N4,N4-dipropyl-3H-1-benzazepine-4,8-dicarboxamide]
2 | > 100000 | CCCN(CCC)C(=O)C1=Cc2ccc(C(=O)Nc3cccc(C(=O)N4CCCC4)c3)cc2N=C(N)C1 [Example 15, 2-Amino-N4,N4-dipropyl-N8-[3-(pyrrolidine-1-carbonyl)phenyl]-3H-1-benzazepine-4,8-dicarboxamide]
14 | > 100000 | CCCN(CCC)C(=O)C1=Cc2ccc(C(=O)Nc3cncc(C(=O)N4CCCC4)c3)cc2N=C(N)C1 [Example 16, 2-Amino-N4,N4-dipropyl-N8-[5-(pyrrolidine-1-carbonyl)-3-pyridyl]-3H-1-benzazepine-4,8-dicarboxamide]
6 | > 100000 | CCCN(CCC)C(=O)C1=Cc2ccc(C(=O)Nc3cccc(CCN)c3)cc2N=C(N)C1 [Example 17, 2-Amino-N8-[3-(2-aminoethyl)phenyl]-N4,N4-dipropyl-3H-1-benzazepine-4,8-dicarboxamide]
2 | 34000 | CCCN(CCC)C(=O)C1=Cc2ccc(C(=O)Nc3cncc(C)c3)cc2N=C(N)C1 [Example 18, 2-Amino-N8-(5-methyl-3-pyridyl)-N4,N4-dipropyl-3H-1-benzazepine-4,8-dicarboxamide]

EC50 (human TLR8) [nM] | EC50 (human TLR7) [nM] | Compound
5 | > 100000 | CCCN(CCC)C(=O)C1=Cc2ccc(C(=O)Nc3cccc(F)c3)cc2N=C(N)C1 [Example 19, 2-Amino-N8-(3-fluorophenyl)-N4,N4-dipropyl-3H-1-benzazepine-4,8-dicarboxamide]
3 | 46000 | CCCN(CCC)C(=O)C1=Cc2ccc(C(=O)Nc3cncc(F)c3)cc2N=C(N)C1 [Example 20, 2-Amino-N8-(5-fluoro-3-pyridyl)-N4,N4-dipropyl-3H-1-benzazepine-4,8-dicarboxamide]
21 | > 100000 | CCCN(CCC)C(=O)C1=Cc2ccc(C(=O)Nc3cccnc3C)cc2N=C(N)C1 [Example 21, 2-Amino-N8-(2-methyl-3-pyridyl)-N4,N4-dipropyl-3H-1-benzazepine-4,8-dicarboxamide]
3 | > 100000 | CCCN(CCC)C(=O)C1=Cc2ccc(C(=O)Nc3ccc(C)nc3)cc2N=C(N)C1 [Example 22, 2-Amino-N8-(6-methyl-3-pyridyl)-N4,N4-dipropyl-3H-1-benzazepine-4,8-dicarboxamide]
1 | > 100000 | CCCN(CCC)C(=O)C1=Cc2ccc(C(=O)Nc3cc(C)cc(C)c3)cc2N=C(N)C1 [Example 23, 2-Amino-N8-(3,5-dimethylphenyl)-N4,N4-dipropyl-3H-1-benzazepine-4,8-dicarboxamide]
9 | > 100000 | CCCN(CCC)C(=O)C1=Cc2ccc(C(=O)Nc3ccc(CN)cc3)cc2N=C(N)C1 [Example 24, 2-Amino-N8-[4-(aminomethyl)phenyl]-N4,N4-dipropyl-3H-1-benzazepine-4,8-dicarboxamide]
18 | > 100000 | CCCN(CCC)C(=O)C1=Cc2ccc(C(=O)Nc3ccc(CCN)cc3)cc2N=C(N)C1 [Example 25, 2-Amino-N8-[4-(2-aminoethyl)phenyl]-N4,N4-dipropyl-3H-1-benzazepine-4,8-dicarboxamide]
2 | > 100000 | CCCN(CCCO)C(=O)C1=Cc2ccc(C(=O)Nc3cccc(C)c3)cc2N=C(N)C1 [Example 26, 2-Amino-N4-(3-hydroxypropyl)-N8-(m-tolyl)-N4-propyl-3H-1-benzazepine-4,8-dicarboxamide]
5 | 28000 | CCCN(CCC)C(=O)C1=Cc2ccc(C(=O)Nc3ccccc3C)cc2N=C(N)C1 [Example 27, 2-Amino-N8-(o-tolyl)-N4,N4-dipropyl-3H-1-benzazepine-4,8-dicarboxamide]
1 | > 100000 | CCCN(CCC)C(=O)C1=Cc2ccc(C(=O)Nc3ccc(C)cc3)cc2N=C(N)C1 [Example 28, 2-Amino-N4,N4-dipropyl-N8-(p-tolyl)-3H-1-benzazepine-4,8-dicarboxamide]
1 | > 100000 | CCCN(CCC)C(=O)C1=Cc2ccc(C(=O)Nc3cccc(CC)c3)cc2N=C(N)C1 [Example 29, 2-Amino-N8-(3-ethylphenyl)-N4,N4-dipropyl-3H-1-benzazepine-4,8-dicarboxamide]
2 | > 100000 | CCCN(CCC)C(=O)C1=Cc2ccc(C(=O)Nc3cccc(OC)c3)cc2N=C(N)C1 [Example 30, 2-Amino-N8-(3-methoxyphenyl)-N4,N4-dipropyl-3H-1-benzazepine-4,8-dicarboxamide]
5 | > 100000 | CCCN(CCC)C(=O)C1=Cc2ccc(C(=O)Nc3cccc(C(F)(F)F)c3)cc2N=C(N)C1 [Example 31, 2-Amino-N4,N4-dipropyl-N8-[3-(trifluoromethyl)phenyl]-3H-1-benzazepine-4,8-dicarboxamide]
2 | > 100000 | CCCN(CCC)C(=O)C1=Cc2ccc(C(=O)Nc3cccc(Cl)c3)cc2N=C(N)C1 [Example 32, 2-Amino-N8-(3-chlorophenyl)-N4,N4-dipropyl-3H-1-benzazepine-4,8-dicarboxamide]
2 | > 100000 | CCCN(CCC)C(=O)C1=Cc2ccc(C(=O)Nc3cncc(CN)c3)cc2N=C(N)C1 [Example 33, 2-Amino-N8-[5-(aminomethyl)-3-pyridyl]-N4,N4-dipropyl-3H-1-benzazepine-4,8-dicarboxamide]
2 | > 100000 | CCCN(CCC)C(=O)C1=Cc2ccc(C(=O)Nc3ccnnc3)cc2N=C(N)C1 [Example 34, 2-Amino-N4,N4-dipropyl-N8-pyridazin-4-yl-3H-1-benzazepine-4,8-dicarboxamide]
1 | > 100000 | CCCN(CCC)C(=O)C1=Cc2ccc(C(=O)Nc3ccc(OCC)nc3)cc2N=C(N)C1 [Example 35, 2-Amino-N8-(6-ethoxy-3-pyridyl)-N4,N4-dipropyl-3H-1-benzazepine-4,8-dicarboxamide]
